What was measured:
[1] = tested on: spontaneous non-small cell lung cancer (Kras^LSL-G12D/+; Trp53^flox/flox mice); experiment: Tumor proliferation in genetically engineered mouse models for spontaneous non-small cell lung cancer (Micro-CT); assay type: in vivo; conditions: compared to before the drug administration, Micro-CT imaging; dunnione 40 mg/kg, carboplatin 25 mg/kg, paclitaxel 10 mg/kg, anti-PD-1 antibody 200 μg/head
Excerpt: Models for spontaneous non-small cell lung cancer were induced by constructing conditional mutant mice (Kras^LSL-G12D/+; Trp53^flox/flox mice) having Ras activation and p53 variation through crossbreeding of conditional K-Ras activation variation-genetically engineered mice and conditional p53 variation-genetically engineered mice, and then performing intratracheal instillation of adenoviruses (Ad5-CMV-Cre; 2.5×10^7 PFU/infectious units), into which Cre genes were introduced, into the lung. […]
After sole administration or co-administration of respective drugs was performed according to the administration schedule listed in Table 38 below and FIG. 35, the tumor growth rate for each group compared to before the drug administration was measured at the 6th week through Micro-CT imaging, and the results thereof were summarized in Table 39.

Hepa1-6 = experiment: Tumor growth inhibition, animal model for liver cancer (Hepa1-6); assay type: in vivo, C57BL/6 mice; conditions: Dunnione 40 mg/kg oral every day from 11th day, Anti-CTLA4 antibody 200 μg/head i.p. 2 times a week from 11th day
Experimental: (§1) All mice used in the experiments were raised in a sterile animal room with constant temperature (22° C. to 26° C.) and constant humidity (55% to 60%), acclimatized for 1 week while sufficiently supplying typical solid feed (Samtako Inc., Korea) and water, and then used. All experiments were conducted after obtaining approval from the Institutional Animal Care and Use Committee in accordance with the laboratory animal care and ethics regulations of the Institutional Animal Care and Use Committee of Wonkwang University.
(§2) 7-week-old BALB/c or C57BL/6 mice were used, and subcutaneously inoculated using a 1-mL insulin syringe within 30 minutes after mixing the mouse cancer cells with 0.2 mL of PBS.
(§3) After the cancer cell line was subcutaneously implanted, the administration of drugs was started when the size of the cancer reached 50 to 100 mm^3. The volumes (mm^3) of the tumors, which were generated after the inoculation, were measured at intervals of 3 days using a caliper, calculation was performed using the formula of […], and then the results thereof were compared. […]

EMT6 = experiment: Tumor growth inhibition, animal model for breast cancer II (EMT6); assay type: in vivo, BALB/c mice; conditions: Experimental Example 14, Dunnione 40 mg/kg oral every day from 11th day, Anti-CTLA4 antibody 200 μg/head i.p. 2 times a week from 11th day, Lapatinib 100 mg/kg oral every day from 11th day
Experimental: as §1, §2, §3

KLN205 = experiment: Tumor growth inhibition, animal model for lung cancer I (KLN205); assay type: in vivo, DBA/2 mice; conditions: Experimental Example 30, dunnione 40 mg/kg oral daily from 5th day, anti-PD-1 antibody 100 μg/head, carboplatin 25 mg/kg + paclitaxel 10 mg/kg intraperitoneal 2 times a week, 4 times in total
Experimental: as §1, §2, §3

4T1-Luc = experiment: Tumor metastasis analysis, photon emission amount after tumor resection (4T1-Luc); assay type: in vivo, BALB/c mice; conditions: Experimental Example 32; 17th day after primary tumor removal; dunnione 40 mg/kg oral daily; anti-CTLA4 antibody 200 μg/head intraperitoneal at intervals of 3 days; mitoxantrone 6 mg/kg intraperitoneal once on 1st day
Experimental: 4T1-Luc (2.5×10^6 cells) as a mouse breast cancer cell line overexpressing a luciferase was implanted into mammary fat pads of BALB/c mice, and the tumor was removed through surgical resection when the size of the cancer reached 150 to 200 mm^3. The administration of drugs was started from the day after the tumor removal procedure, and the degree of cancer metastasis was measured by measuring the photon emission amount at intervals of 1 week from the 3rd day after the tumor removal procedure.
After sole administration or co-administration of respective drugs was performed according to the administration schedule listed in Table 35 below, the photon emission amount (fold) was measured on the 17th day according to the tumor metastasis assessment method described in Example 2.1, and the results thereof are shown in Table 35 and FIG. 32.

MC38 [2] = experiment: Tumor growth inhibition, animal model for colorectal cancer I (MC38); assay type: in vivo, C57BL/6 mice
Experimental: as §1, §2
After the cancer cell line was subcutaneously implanted, the administration of drugs was started when the size of the cancer reached 50 to 100 mm^3. The volumes (mm^3) of the tumors, which were generated after the inoculation, were measured at intervals of 3 days using a caliper, calculation was performed using the formula of […], and then the results thereof were compared.
In addition, sole administration or co-administration of respective drugs was performed according to the administration schedules listed in Tables 4 to 34 below, the tumor volumes were then measured according to the tumor proliferation assessment method described in Example 1.1, the tumor growth inhibition rates (TGI (O)=(Vc−Vt)/Vc×100(%); Vc: tumor volume of control, Vt tumor volume of experimental group) were calculated based the tumor volumes, and the results thereof are shown in the respective tables and FIGS. 1 to 31.

MC38 [3] = experiment: Survival rate analysis, animal model for colorectal cancer I (MC38); assay type: in vivo, C57BL/6 mice
Experimental: After subcutaneous implantation of the cancer cell line, the survival rate was measured by recording the number of mice that died in each group every day. The measurement of survival rate was performed until the death of all mice in all groups or the death of all mice in the control. The average survival day was calculated by obtaining a survival curve using the survival rate.
After sole administration or co-administration of respective drugs was performed according to the administration schedules listed in Tables 36 and 37 below, the survival rates and the average survival days were calculated according to the survival rate analysis method described in Example 3.1, and the results thereof are respectively shown in Tables 36 and 37 and FIGS. 33 and 34.

[4] = Experimental Example 34, dunnione 40 mg/kg oral daily from 6th day, anti-PD-1 antibody 200 μg/head intraperitoneal 2 times a week from 6th to 62nd day, 5-fluorouracil 50 mg/kg intraperitoneal once on 6th day

## CC1OC2=C(C(=O)C(=O)c3ccccc32)C1(C)C (stereo not shown) [Dunnione, 2,3,3-trimethyl-2H-benzo[g][1]benzofuran-4,5-dione]
[1]
  Tumor growth rate (fold) at 6th week: 34.6 ± 54 fold
Hepa1-6; Experimental Example 28, 4 times, Sorafenib 10 mg/kg oral every day from 11th day
  TGI (%): 29.1%
Hepa1-6; Experimental Example 29, 3 times, Everolimus 1 mg/kg oral every day from 11th day
  TGI (%): 22.4%
EMT6
  TGI (%): 9.7%
KLN205
  TGI (%): 10.2%
4T1-Luc
  Photon emission amount: 2805.3 ± 2352.3 fold
MC38 [2]; Experimental Example 1, Dunnione 40 mg/kg oral every day from 5th day, Anti-PD-1 antibody 200 μg/head i.p. at intervals of 3 days from 5th day, 4 times, Oxaliplatin 6 mg/kg + 5-Fluorouracil 50 mg/kg i.p. once on 5th day
  TGI (%): 8.1%
MC38 [2]; Experimental Example 2, Dunnione 40 mg/kg oral every day from 5th day, Anti-CTLA4 antibody 200 μg/head i.p. at intervals of 3 days from 5th day, 4 times, Oxaliplatin 6 mg/kg + 5-Fluorouracil 50 mg/kg i.p. once on 5th day
  TGI (%): 7.6%
MC38 [2]; Experimental Example 3, Dunnione 40 mg/kg oral every day from 4th day, Anti-PD-1 antibody 100 ug/head + Anti-CTLA4 antibody 100 μg/head i.p. at intervals of 3 days from 4th day, 4 times, Oxaliplatin 6 mg/kg + 5-Fluorouracil 50 mg/kg i.p. once on 4th day
  TGI (%): 5.3%
MC38 [2]; Experimental Example 4, Dunnione 40 mg/kg oral every day from 7th day, Anti-LAG3 antibody 200 μg/head i.p. on 7th, 10th, 14th, 17th days, Oxaliplatin 6 mg/kg i.p. on 7th and 14th days
  TGI (%): 13.1%
MC38 [2]; Experimental Example 5, Dunnione 40 mg/kg oral every day from day of cancer cell implantation, Anti-PD-1 antibody 200 μg/head i.p. at intervals of 3 days from 7th day, 4 times
  TGI (%): 28.5%
MC38 [2]; Experimental Example 6, Dunnione 40 mg/kg oral every day from 7th day, Anti-PD-1 antibody 100 μg/head i.p. 2 times a week from 7th day, 4 times, Regorafenib 10 mg/kg oral every day from 7th day
  TGI (%): 36.8%
MC38 [2]; Experimental Example 7, Dunnione 40 mg/kg oral every day from 6th day, Anti-PD-1 antibody 100 μg/head i.p. 2 times a week from 6th day, 2 times, Abemaciclib 75 mg/kg oral every day from 6th day
  TGI (%): 9.9%
MC38 [3]; Experimental Example 33, dunnione 40 mg/kg oral daily from 4th day, anti-PD-1 antibody 100 μg/head + anti-CTLA4 antibody 100 μg/head intraperitoneal, oxaliplatin 6 mg/kg + 5-fluorouracil 50 mg/kg intraperitoneal at intervals of 15 days, 3 times
  Survival rate (%) on 38th day after cancer implantation: 10%
MC38 [3]; [4]
  Average survival day: 28 days
  Total survival period: 22 to 45

Source: patent US20230255904A1, “PHARMACEUTICAL COMPOSITION FOR PREVENTING OR TREATING CANCER COMPRISING NAPHTHOQUINONE-BASED COMPOUND AND IMMUNE CHECKPOINT INHIBITOR AS ACTIVE INGREDIENTS” (NADIANBIO LTD., priority 2020, published 2023)
